Reference: patent publication US20230127326A1, “C3-SUBSTITUTED 1H-PYRAZOLO[4,3-d]PYRIMIDINE COMPOUNDS AS TOLL-LIKE RECEPTOR 7 (TLR7) AGONISTS” (BRISTOL-MYERS SQUIBB COMPANY, priority 2020, published 2023)

Legend:
human TLR7 = target: T1, human TLR7 (Homo sapiens, UniProt Q9NYK1); test: Human TLR7 agonist activity reporter assay (HEK-Blue TLR7 cells, SEAP reporter); type: cell-based; details: 18 h treatment, average where assay was performed multiple times, read-out: hTLR7 Agonism EC50
T1 construct: host or cells: HEK-Blue TLR7 cells (engineered human embryonic kidney cells)
T1 sequence (Q9NYK1 27-1049): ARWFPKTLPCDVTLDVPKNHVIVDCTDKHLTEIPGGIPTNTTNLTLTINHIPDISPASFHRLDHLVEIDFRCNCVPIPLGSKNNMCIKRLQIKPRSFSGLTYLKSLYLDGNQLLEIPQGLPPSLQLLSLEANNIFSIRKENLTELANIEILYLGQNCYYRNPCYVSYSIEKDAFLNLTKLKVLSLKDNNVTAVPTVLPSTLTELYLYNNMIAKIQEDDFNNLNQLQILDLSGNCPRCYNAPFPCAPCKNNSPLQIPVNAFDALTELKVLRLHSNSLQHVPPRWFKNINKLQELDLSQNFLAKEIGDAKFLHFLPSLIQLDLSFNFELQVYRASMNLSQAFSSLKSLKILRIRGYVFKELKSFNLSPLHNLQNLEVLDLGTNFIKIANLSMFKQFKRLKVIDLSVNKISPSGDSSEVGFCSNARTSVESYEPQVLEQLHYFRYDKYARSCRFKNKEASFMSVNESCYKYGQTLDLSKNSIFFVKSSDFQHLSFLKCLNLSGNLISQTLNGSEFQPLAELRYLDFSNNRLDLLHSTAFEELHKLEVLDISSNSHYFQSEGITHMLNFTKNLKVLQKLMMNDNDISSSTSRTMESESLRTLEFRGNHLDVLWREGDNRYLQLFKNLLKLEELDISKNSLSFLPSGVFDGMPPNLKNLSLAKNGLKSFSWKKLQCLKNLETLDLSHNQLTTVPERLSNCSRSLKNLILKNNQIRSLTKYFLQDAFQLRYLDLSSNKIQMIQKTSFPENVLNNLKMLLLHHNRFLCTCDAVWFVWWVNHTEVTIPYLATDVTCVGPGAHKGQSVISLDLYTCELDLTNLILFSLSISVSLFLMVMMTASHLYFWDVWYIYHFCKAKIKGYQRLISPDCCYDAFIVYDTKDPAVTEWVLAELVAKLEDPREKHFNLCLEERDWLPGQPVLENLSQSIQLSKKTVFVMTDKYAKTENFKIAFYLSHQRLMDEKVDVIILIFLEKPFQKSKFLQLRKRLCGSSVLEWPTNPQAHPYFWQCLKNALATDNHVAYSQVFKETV
Method: This procedure describes a method for assaying human TLR7 (hTLR7) agonist activity of the compounds disclosed in this specification.
HEK-Blue™ TLR7 cells were added to each well of a 384-well tissue-culture plate (15,000 cells per well) and incubated 16-18 h at 37° C., 5% CO2. Compounds (100 nl) were dispensed into wells containing the HEK-Blue™ TLR cells and the treated cells were incubated at 37° C., 5% CO2. After 18 h treatment ten microliters of freshly-prepared Quanti-Blue™ reagent (Invivogen) was added to each well, incubated for 30 min (37° C., 5% CO2) and SEAP levels measured using an Envision plate reader (OD=620 nm). The half maximal effective concentration values (EC50; compound concentration which induced a response halfway between the assay baseline and maximum) were calculated.

CD69 = test: Induction of CD69 in human whole blood; type: cell-based; details: 17 hrs at 37° C., y-axis 100% set to 1 uM of resiquimod, average where assay was performed multiple times, read-out: hWB CD69 EC50
Method: The induction of Type I interferon (IFN) MX-1 genes and the B-cell activation marker CD69 are downstream events that occur upon activation of the TLR7 pathway. The following is a human whole blood assay that measures their induction in response to a TLR7 agonist.
Heparinized human whole blood was harvested from human subjects and treated with test TLR7 agonist compounds at 1 mM. The blood was diluted with RPMI 1640 media and Echo was used to predot 10 nL per well giving a final concentration of 1 uM (10 nL in 10 uL of blood). After mixing on a shaker for 30 sec, the plates were covered and placed in a 37° C. chamber for o/n=17 hrs. Fixing/lysis buffer was prepared (5×->1× in H2O, warm at 37° C.; Cat #BD 558049) and kept the perm buffer (on ice) for later use.
For surface markers staining (CD69): prepared surface Abs: 0.045 ul hCD14-FITC (ThermoFisher Cat #MHCD1401)+0.6 ul hCD19-ef450 (ThermoFisher Cat #48-0198-42)+1.5 ul hCD69-PE (cat #BD555531)+0.855 ul FACS buffer. Added 3 ul/well, spin 1000 rpm for 1 min and mixed on shaker for 30 sec, put on ice for 30 mins. Stop stimulation after 30 minutes with 70 uL of prewarmed 1× fix/lysis buffer and use Feliex mate to resuspend (15 times, change tips for each plate) and incubate at 37 C for 10 minutes.
Centrifuge at 2000 rpm for 5 minutes aspirate with HCS plate washer, mix on shaker for 30 sec and then wash with 70 uL in dPBS and pelleted 2×s (2000 rpm for 5 min) and 50 ul wash in FACS buffer pelleted 1×s (2000 rpm for 5 min). Mix on shaker for 30 sec. For Intracellular markers staining (MX-1): Add 50 ul of BD Perm buffer III and mix on shaker for 30 sec. Incubate on ice for 30 minutes (in the dark). Wash with 50 uL of FACS buffer 2× (spin @2300 rpm×5 min after perm) followed by mixing on shaker for 30 sec. Resuspended in 20 ul of FACS buffer containing MX1 antibody ( )(4812)-Alexa 647: Novus Biologicals #NBP2-43704AF647) 20 ul FACS bf+0.8 ul hIgG+0.04 ul MX-1. Spin 1000 rpm for 1 min, mix on shaker for 30 se and the samples were incubated at RT in the dark for 45 minutes followed by washing 2×FACS buffer (spin @2300 rpm×5 min after perm). Resuspend 20 ul (35 uL total per well) of FACS buffer and cover with foil and place in 4° C. to read the following day. Plates were read on iQuePlus. The results were loaded into toolset and […] curves are generated in curve master. The y-axis 100% is set to 1 uM of resiquimod.

Row | EC50 (human TLR7) | EC50 (CD69) | Structure (SMILES)
1 | 203 nM | 88.7 nM | CCCCNc1nc(N)nc2c(CC)nn(Cc3ccc(CNC4CCOCC4)cc3OC)c12 [Compound 122, N7-butyl-3-ethyl-1-[(2-methoxy-4-{[(oxan-4-yl)amino]methyl}phenyl)-methyl]-1H-pyrazolo[4,3-d]pyrimidine-5,7-diamine]
2 | 101 nM | 15.4 nM | CCCCNc1nc(N)nc2c(C)nn(Cc3ccc(CNC4CCC4)cc3OC)c12 [Compound 103, N7-butyl-1-({4-[(cyclobutylamino)methyl]-2-methoxyphenyl}methyl)-3-methyl-1H-pyrazolo[4,3-d]pyrimidine-5,7-diamine]
